Experimental data published in patent US10023590B2, “Substituted pyridine compounds having herbicidal activity” (BASF SE, priority 2014, dated 2018).
Where two headings read alike, the source gives them in different places.

What was measured:
Type in all cases: in vivo
Abutilon theophrasti = test: Greenhouse post-emergence herbicidal activity, ABUTH; settings: ABUTH
Excerpt: (§1) The culture containers used were plastic flowerpots containing loamy sand with approximately 3.0% of humus as the substrate. The seeds of the test plants were sown separately for each species.
(§2) For the post-emergence treatment, the test plants were first grown to a height of 3 to 15 cm, depending on the plant habit, and only then treated with the active ingredients which had been suspended or emulsified in water. For this purpose, the test plants were either sown directly and grown in the same containers, or they were first grown separately as seedlings and transplanted into the test containers a few days prior to treatment.
(§3) Depending on the species, the plants were kept at 10-25° C. or 20-35° C., respectively.
(§4) The test period extended over 2 to 4 weeks. During this time, the plants were tended, and their response to the individual treatments was evaluated.
(§5) Evaluation was carried out using a scale from 0 to 100. 100 means no emergence of the plants, or complete destruction of at least the aerial moieties, and 0 means no damage, or normal course of growth. A good herbicidal activity is given at values of at least 70 and a very good herbicidal activity is given at values of at least 85.

Amaranthus retroflexus = test: Greenhouse post-emergence herbicidal activity, AMARE; settings: AMARE
Excerpt: as §1, §2, §3, §4, §5

Chenopodium album = test: Greenhouse post-emergence herbicidal activity, CHEAL
Excerpt: as §1, §2, §3, §4, §5

Cirsium arvense = test: Greenhouse post-emergence herbicidal activity, CIRAR; settings: CIRAR, 0.125 kg/ha, scale 0 to 100
Excerpt: as §1, §2, §3, §4, §5

Echinocloa crus-galli = test: Greenhouse post-emergence herbicidal activity, ECHCG; settings: Echinochloa crus-galli, ECHCG
Excerpt: as §1, §2, §3, §4, §5

Kochia scoparia = test: Greenhouse post-emergence herbicidal activity, KCHSC; settings: scale 0 to 100
Excerpt: as §1, §2, §3, §4, §5

Oryza sativa = test: Greenhouse post-emergence herbicidal activity on crop ORYSA (rice)
Excerpt: as §1, §2, §3, §4, §5

Zea mays = test: Greenhouse post-emergence herbicidal activity on crop ZEAMX (corn, maize); parameters: key: 0 = no damage/normal growth, 100 = no emergence or complete destruction
Excerpt: as §1, §2, §3, §4, §5

Ambrosia artemisiifolia = test: Greenhouse post-emergence herbicidal activity, AMBEL; settings: scale 0 to 100
Excerpt: as §1, §2, §3, §4, §5

Setaria viridis = test: Greenhouse post-emergence herbicidal activity, SETVI
Excerpt: as §1, §2, §3, §4, §5

Stellaria media = test: Greenhouse post-emergence herbicidal activity, STEME
Excerpt: as §1, §2, §3, §4, §5

[1] = 2 kg/ha, scale 0 to 100, read-out: Herbicidal activity
[2] = ORYSA (rice, crop), 0.031 kg/ha, scale 0 to 100
[3] = ORYSA (rice, crop), 0.063 kg/ha, scale 0 to 100
[4] = ZEAMX (corn, crop), 0.031 kg/ha, scale 0 to 100
[5] = ZEAMX (corn, crop), 0.063 kg/ha, scale 0 to 100
[6] = ORYSA (rice, crop), 0.125 kg/ha, scale 0 to 100
[7] = ZEAMX (corn, crop), 0.125 kg/ha, scale 0 to 100
[8] = application rate 2 kg/ha, read-out: Herbicidal activity
[9] = crop ZEAMX (corn, maize), application rate 0.031 kg/ha
[10] = crop ORYSA (rice), application rate 0.031 kg/ha
[11] = crop ZEAMX (corn, maize), application rate 0.063 kg/ha
[12] = crop ZEAMX (corn, maize), application rate 0.125 kg/ha

| Structure (SMILES) | pest or weed control at 2000 g/ha (Abutilon theophrasti; [1]) | pest or weed control at 31 g/ha (Amaranthus retroflexus; 0.031 kg/ha, scale 0 to 100) | pest or weed control at 63 g/ha (Amaranthus retroflexus; 0.063 kg/ha, scale 0 to 100) | pest or weed control at 125 g/ha (Amaranthus retroflexus; 0.125 kg/ha, scale 0 to 100) | pest or weed control at 2000 g/ha (Amaranthus retroflexus; [1]) | pest or weed control at 31 g/ha (Chenopodium album; 0.031 kg/ha, scale 0 to 100) | pest or weed control at 63 g/ha (Chenopodium album; 0.063 kg/ha, scale 0 to 100) | pest or weed control at 125 g/ha (Chenopodium album; 0.125 kg/ha, scale 0 to 100) | pest or weed control at 2000 g/ha (Echinocloa crus-galli; [1]) | Herbicidal activity (Oryza sativa; [2]) | Herbicidal activity (Oryza sativa; [3]) | pest or weed control at 31 g/ha (Echinocloa crus-galli; 0.031 kg/ha, scale 0 to 100) | pest or weed control at 63 g/ha (Echinocloa crus-galli; 0.063 kg/ha, scale 0 to 100) | pest or weed control at 125 g/ha (Echinocloa crus-galli; 0.125 kg/ha, scale 0 to 100) | Herbicidal activity (Zea mays; [4]) | Herbicidal activity (Zea mays; [5]) | Herbicidal activity (Oryza sativa; [6]) | Herbicidal activity (Zea mays; [7]) | pest or weed control at 125 g/ha (Amaranthus retroflexus; application rate 0.125 kg/ha) | pest or weed control at 63 g/ha (Chenopodium album; application rate 0.063 kg/ha) | also measured |
| --- | --- | --- | --- | --- | --- | --- | --- | --- | --- | --- | --- | --- | --- | --- | --- | --- | --- | --- | --- | --- | --- |
| CC1(C)c2cccnc2C(O)=C(c2c(Cl)ccc(NS(C)(=O)=O)c2Cl)S1(=O)=O [I-6, N-[2,4-dichloro-3-(8-hydroxy-5,5-dimethyl-6,6-dioxo-thiopyrano[4,3-b]pyridin-7-yl)phenyl]methanesulfonamide] | 100% | 85% | 95% | 98% | 100% | 95% | 98% | 98% | 100% | 0 | 40 | – | – | – | – | – | – | – | – | – | pest or weed control at 125 g/ha (Cirsium arvense): 100%; Herbicidal activity (Kochia scoparia; 0.031 kg/ha): 90; Herbicidal activity (Kochia scoparia; 0.063 kg/ha): 98 |
| CCN(c1c(Cl)ccc(C2=C(O)c3ncccc3CS2(=O)=O)c1Cl)S(C)(=O)=O [I-8, N-[2,6-dichloro-3-(8-hydroxy-6,6-dioxo-5H-thiopyrano[4,3-b]pyridin-7-yl)phenyl]-N-ethyl-methanesulfonamide] | 100% | 100% | 90% | – | 100% | 100% | 100% | 100% | 100% | 0 | 25 | 90% | 95% | 95% | 0 | 0 | – | – | – | – | – |
| Cc1c(C2=C(OC(=O)C(C)(C)C)c3ncccc3C(C)(C)S2(=O)=O)cccc1N(C)S(C)(=O)=O [I-13, [5,5-dimethyl-7-[2-methyl-3-[methyl(methylsulfonyl)amino]phenyl]-6,6-dioxo-thiopyrano[4,3-b]pyridin-8-yl] 2,2-dimethylpropanoate] | – | – | – | – | 100% | – | – | – | 75% | – | – | – | – | – | – | – | 0 | 0 | – | – | Herbicidal activity (Kochia scoparia; 0.125 kg/ha): 90 |
| CN(c1cccc(C2=C(O)c3ncccc3C(C)(C)S2(=O)=O)c1Cl)S(C)(=O)=O [I-17, N-[2-chloro-3-(8-hydroxy-5,5-dimethyl-6,6-dioxo-thiopyrano[4,3-b]pyridin-7-yl)phenyl]-N-methyl-methanesulfonamide] | 100% | 98% | 100% | 100% | 100% | 100% | 100% | 100% | 100% | – | 10 | 95% | – | – | – | – | – | – | – | – | Herbicidal activity (Ambrosia artemisiifolia; 0.063 kg/ha): 100; Herbicidal activity (Ambrosia artemisiifolia; 0.125 kg/ha): 100 |
| CN(C)S(=O)(=O)Oc1c(Cl)ccc(C2=C(O)c3ncccc3CS2(=O)=O)c1Cl [I-22] | – | – | 70% | 75% | 100% | – | 95% | 100% | 100% | 30 | 35 | 80% | 90% | 95% | 0 | 0 | 40 | 15 | – | – | Herbicidal activity (Setaria viridis; 2 kg/ha, scale 0 to 100): 98 |
| Cc1c(C2=C(O)c3ncccc3C(C)(C)S2(=O)=O)ccc(Cl)c1N(C)S(C)(=O)=O [I-29, N-[6-chloro-3-(8-hydroxy-5,5-dimethyl-6,6-dioxo-thiopyrano[4,3-b]pyridin-7-yl)-2-methyl-phenyl]-N-methyl-methanesulfonamide] | – | 95% | 95% | 98% | – | 98% | 98% | 98% | – | 0 | 25 | 85% | 90% | 95% | 0 | 5 | 35 | 15 | – | – | pest or weed control at 250 g/ha (Amaranthus retroflexus; 0.25 kg/ha, scale 0 to 100): 98%; pest or weed control at 250 g/ha (Chenopodium album; 0.25 kg/ha, scale 0 to 100): 98%; Herbicidal activity (Stellaria media; 0.25 kg/ha, scale 0 to 100): 98 |
| CN(c1c(Cl)ccc(C2=C(OC(=O)C(C)(C)C)c3ncccc3C(C)(C)S2(=O)=O)c1Cl)S(C)(=O)=O [I-30] | – | – | – | – | – | – | – | – | – | – | – | – | – | – | – | – | – | – | – | – | pest or weed control at 2000 g/ha (Abutilon theophrasti; [8]): 100%; pest or weed control at 2000 g/ha (Amaranthus retroflexus; [8]): 100%; pest or weed control at 2000 g/ha (Echinocloa crus-galli; [8]): 100% |
| CN(c1c(Cl)ccc(C2=C(O)c3ncccc3CS2(=O)=O)c1C(F)(F)F)S(C)(=O)=O [I-31, N-[6-chloro-3-(8-hydroxy-6,6-dioxo-5H-thiopyrano[4,3-b]pyridin-7-yl)-2-(trifluoromethyl)phenyl]-N-methyl-methanesulfonamide] | – | – | – | – | – | – | – | – | – | – | – | – | – | – | – | – | – | – | 98% | 98% | pest or weed control at 31 g/ha (Abutilon theophrasti; application rate 0.031 kg/ha): 70%; pest or weed control at 63 g/ha (Abutilon theophrasti; application rate 0.063 kg/ha): 90%; pest or weed control at 250 g/ha (Amaranthus retroflexus; application rate 0.25 kg/ha): 98%; pest or weed control at 125 g/ha (Chenopodium album; application rate 0.125 kg/ha): 98%; pest or weed control at 250 g/ha (Chenopodium album; application rate 0.25 kg/ha): 98%; pest or weed control at 125 g/ha (Echinocloa crus-galli; application rate 0.125 kg/ha): 98%; pest or weed control at 250 g/ha (Echinocloa crus-galli; application rate 0.25 kg/ha): 98%; Herbicidal activity (Stellaria media; application rate 0.031 kg/ha): 80; Herbicidal activity (Stellaria media; application rate 0.063 kg/ha): 100; Herbicidal activity (Zea mays; [9]): 5 |
| CN(c1cccc(C2=C(O)c3ncccc3C(C)(C)S2(=O)=O)c1C(F)(F)F)S(C)(=O)=O [I-36, N-[3-(8-hydroxy-5,5-dimethyl-6,6-dioxo-thiopyrano[4,3-b]pyridin-7-yl)-2-(trifluoromethyl)phenyl]-N-methyl-methanesulfonamide] | – | – | – | – | – | – | – | – | – | – | – | – | – | – | – | – | – | – | 98% | 100% | pest or weed control at 31 g/ha (Amaranthus retroflexus; application rate 0.031 kg/ha): 90%; pest or weed control at 63 g/ha (Amaranthus retroflexus; application rate 0.063 kg/ha): 95%; pest or weed control at 31 g/ha (Chenopodium album; application rate 0.031 kg/ha): 100%; pest or weed control at 125 g/ha (Chenopodium album; application rate 0.125 kg/ha): 100%; pest or weed control at 31 g/ha (Echinocloa crus-galli; application rate 0.031 kg/ha): 70%; pest or weed control at 63 g/ha (Echinocloa crus-galli; application rate 0.063 kg/ha): 90%; pest or weed control at 125 g/ha (Echinocloa crus-galli; application rate 0.125 kg/ha): 95%; Herbicidal activity (Oryza sativa; [10]): 30; Herbicidal activity (Oryza sativa; crop ORYSA (rice), application rate 0.063 kg/ha): 40; Herbicidal activity (Oryza sativa; crop ORYSA (rice), application rate 0.125 kg/ha): 45; Herbicidal activity (Zea mays; [9]): 0; Herbicidal activity (Zea mays; [11]): 0; Herbicidal activity (Zea mays; [12]): 0 |
| CN(c1c(Cl)ccc(C2=C(O)c3ncc(F)cc3C(C)(C)S2(=O)=O)c1Cl)S(C)(=O)=O [I-38, N-[2,6-dichloro-3-(3-fluoro-8-hydroxy-5,5-dimethyl-6,6-dioxo-thiopyrano[4,3-b]pyridin-7-yl)phenyl]-N-methyl-methanesulfonamide] | – | – | – | – | – | – | – | – | – | – | – | – | – | – | – | – | – | – | 98% | 95% | pest or weed control at 31 g/ha (Amaranthus retroflexus; application rate 0.031 kg/ha): 98%; pest or weed control at 63 g/ha (Amaranthus retroflexus; application rate 0.063 kg/ha): 98%; pest or weed control at 31 g/ha (Chenopodium album; application rate 0.031 kg/ha): 98%; pest or weed control at 125 g/ha (Chenopodium album; application rate 0.125 kg/ha): 98%; pest or weed control at 31 g/ha (Echinocloa crus-galli; application rate 0.031 kg/ha): 95%; pest or weed control at 63 g/ha (Echinocloa crus-galli; application rate 0.063 kg/ha): 95%; pest or weed control at 125 g/ha (Echinocloa crus-galli; application rate 0.125 kg/ha): 100%; Herbicidal activity (Oryza sativa; [10]): 35; Herbicidal activity (Setaria viridis; application rate 0.125 kg/ha): 100; Herbicidal activity (Zea mays; [9]): 0; Herbicidal activity (Zea mays; [11]): 0; Herbicidal activity (Zea mays; [12]): 15 |
